Assay results reported in ChEMBL document CHEMBL1127510, “Plant antitumor agents. 31. The calycopterones, a new class of biflavonoids with novel cytotoxicity in a diverse panel of human tumor cell lines” (J Med Chem, 1994).
≈ marks a conversion by molar mass, not a printed value. Where “and” joins values, the source holds several entries; their conditions need not be identical. Equal values may be shown once.

Assays:
[1] = test system: Colon carcinoma cell; assay: In vitro cytotoxicity against colon cancer cell line; type: functional, cell-based; conditions: Homo sapiens
[2] = test system: U373 MG; assay: In vitro cytotoxicity against glioblastoma cell line; type: functional, cell-based, U-373MG ATCC; conditions: Homo sapiens
[3] = test system: Lung cancer cell line; assay: In vitro cytotoxicity against lung cancer cell line; type: functional, cell-based; conditions: Homo sapiens
[4] = test system: Fibrosarcoma cell line; assay: In vitro cytotoxicity against fibrosarcoma cell line; type: functional, cell-based; conditions: Homo sapiens
[5] = test system: P388; assay: In vitro cytotoxicity against murine lymphoid neoplasm cell line; type: functional, cell-based; conditions: Mus musculus
[6] = test system: A-431; assay: In vitro cytotoxicity against epidermoid carcinoma cell line; type: functional, cell-based; conditions: Homo sapiens
[7] = test system: KB; assay: In vitro cytotoxicity against oral epidermoid carcinoma cell line; type: functional, cell-based; conditions: Homo sapiens
[8] = test system: BC1 cell line; assay: In vitro cytotoxicity against breast cancer cell line; type: functional, cell-based; conditions: Homo sapiens
[9] = test system: KB; assay: In vitro cytotoxicity against vinblastine resistant KB cell line; type: functional, cell-based; conditions: Homo sapiens
[10] = test system: SK-VLB; assay: Compound was tested for cytotoxicity against ovarian adenocarcinoma, multidrug resistant; type: functional, cell-based; conditions: Homo sapiens
[11] = test system: HT-29; assay: Compound was tested for cytotoxicity against colon adenocarcinoma; type: functional, cell-based, Homo sapiens
[12] = test system: SK-OV-3; assay: Comparison of cytotoxicity of calycopterone and flavone with doxorubicin against ovarian adenocarcinoma; type: functional, cell-based, Homo sapiens
[13] = test system: SK-VLB; assay: Compound was tested for cytotoxicity against ovarian adenocarcinoma, multidrug resistant; conditions: Homo sapiens
[14] = test system: SK-OV-3; assay: Compound was tested for cytotoxicity against ovarian adenocarcinoma; conditions: Homo sapiens

COC1=C(OC)[C@@]2(OC)c3c(OC)c(O)c4c(c3O[C@@]23O[C@@H](c2ccccc2)CC=C3C1=O)[C@@H](OC)C[C@H](c1ccccc1)O4
EC50 [1]: 0.3 µg/mL (≈ 0.488 µM)
EC50 [2]: 0.8 µg/mL (≈ 1.3 µM)
EC50 [3]: 0.7 µg/mL (≈ 1.14 µM)
EC50 [4]: 0.4 µg/mL (≈ 0.651 µM)
EC50 [5]: 0.2 µg/mL (≈ 0.325 µM)
EC50 [6]: 0.4 µg/mL (≈ 0.651 µM)
EC50 [7]: 0.4 µg/mL (≈ 0.651 µM)
EC50 [8]: 0.4 µg/mL (≈ 0.651 µM)

COC1=C(OC)[C@@]2(OC)c3c(O)c(OC)c4c(c3O[C@@]23O[C@@H](c2ccccc2)CC=C3C1=O)[C@@H](O)C[C@H](c1ccccc1)O4
EC50 [9]: 8.6 µg/mL (≈ 14.3 µM)
EC50 [1]: 0.3 µg/mL (≈ 0.499 µM)
EC50 [2]: 0.3 µg/mL (≈ 0.499 µM)
EC50 [3]: 1.6 µg/mL (≈ 2.66 µM)
EC50 [4]: 0.8 µg/mL (≈ 1.33 µM)
EC50 [5]: 0.42 µg/mL (≈ 0.699 µM)
EC50 [6]: 0.2 µg/mL (≈ 0.333 µM)
EC50 [7]: 1.2 µg/mL (≈ 2 µM)
EC50 [8]: 1.4 µg/mL (≈ 2.33 µM)

COC1=C(OC)[C@@]2(OC)c3c(O)c(OC)c4c(c3O[C@@]23O[C@@H](c2ccccc2)CC=C3C1=O)[C@@H](OC)C[C@H](c1ccccc1)O4 [CALYCOPTERONE]
EC50 [9]: 9.6 µg/mL (≈ 15.6 µM)
IC50 [10]: 1900 nM
EC50 [1]: 0.4 µg/mL (≈ 0.651 µM)
IC50 ([11]; ht-29): 240 nM and 930 nM
EC50 [2]: 0.1 µg/mL (≈ 0.163 µM)
EC50 [3]: 1.2 µg/mL (≈ 1.95 µM)
EC50 [4]: 1.8 µg/mL (≈ 2.93 µM)
EC50 [5]: 0.78 µg/mL (≈ 1.27 µM)
IC50 [12]: 125 nM and 1000 nM
EC50 [6]: 1 µg/mL (≈ 1.63 µM)
EC50 [7]: 0.8 µg/mL (≈ 1.3 µM)
EC50 [8]: 5.4 µg/mL (≈ 8.79 µM)

COc1cc(-c2oc3cc(OC)c(OC)c(O)c3c(=O)c2OC)ccc1O [CHRYSOSPLENOL B]
EC50 [9]: 0.8 µg/mL (≈ 2.14 µM)
EC50 [1]: > 20 µg/mL
IC50 [13]: > 133000 nM
IC50 ([11]; Homo sapiens, HT-29): 14200 nM
EC50 [2]: > 20 µg/mL
EC50 [3]: > 20 µg/mL
IC50 [14]: 79000 nM
EC50 [4]: 4.2 µg/mL (≈ 11.2 µM)
EC50 [5]: > 20 µg/mL
EC50 [6]: > 20 µg/mL
EC50 [7]: > 20 µg/mL
EC50 [8]: > 20 µg/mL

COc1cccc2c1C(=O)c1c(O)c3c(c(O)c1C2=O)C[C@@](O)(C(=O)CO)C[C@@H]3O[C@H]1C[C@H](N)[C@H](O)[C@H](C)O1 [DOXORUBICIN]
IC50 [13]: > 10000 nM
IC50 ([11]; Homo sapiens, HT-29): 180 nM
IC50 [14]: 43 nM
